# Experiments:
# [1] = test system: Drosophila; test: Life span of Drosophila fed various concentrations of PBA; format: in vivo, Drosophila melanogaster
# [2] = test system: Drosophila; test: Life span of Drosophila fed PBA early or late in life; format: in vivo, Drosophila melanogaster
# [3] = test system: Drosophila; test: Food intake (food dye in alimentary tract), caloric restriction test; format: in vivo, Drosophila melanogaster; conditions: overnight feeding, ten flies per group
# Experimental: (§1) Caloric restriction increases life span in rodents, worms, and yeast (Guarente, L & Kenyon, C. Nature 408, 255-262 (2000)). Although PBA is odorless and tasteless to human, flies may dislike the smell or taste of the drug, which may cause caloric restriction. To test the issue of possible caloric restriction effects, the intake of food was measured by adding food dye to both the control and PBA containing media. After an overnight feeding, the alimentary tracts of ten flies from each group were dissected out and examined for color. No difference in the alimentary tract of these flies was discernible. Further, the weight and size of the flies were measured after ten days of feeding with or without PBA (Table 1). […] Therefore, the extension of life span observed in Drosophila fed PBA is most likely not due to caloric restriction.
# [4] = test system: Drosophila; test: Weight and size of flies fed PBA; format: in vivo, Drosophila melanogaster
# Experimental: (§2) Table 1 is a comparison of weight, size and reproductive ability of Drosophila raised on food with and without 10 mM PBA for 10 days at 25° C., as described in Example 1, infra.
# as §1
# [5] = test system: Drosophila; test: Reproductive activity of Drosophila fed PBA (eggs, adult progeny, progeny weight and size); format: in vivo, Drosophila melanogaster
# Experimental: as §2
# Reproductive signaling in C. elegans and Drosophila also contribute to extend life span (Guarente, L & Kenyon, C. Nature 408, 255-262 (2000)). PBA treatment may slow down reproduction of flies and thus results in the extension of life span. The role of PBA on the reproductive activity of female Drosophila was examined by counting the number of eggs layed, the percentage of eggs yielding adult progeny, and the weight and size of the progeny.
# [6] = test system: Drosophila; test: Locomotor activity, negative geotaxis in counter current distribution apparatus; format: in vivo, Drosophila melanogaster; conditions: old flies, FIG. 3A
# Experimental: Life extension without maintaining physical or mental vigor is undesirable. To examine whether the life span increase by PBA is associated with extended maintenance of vigor, the locomotor activity was measured for young and old flies raised with and without PBA treatment. A known assay of negative geotaxis in a counter current distribution apparatus was measured the locomotor activity of the flies (Benzer, S. Proc. Natl. Acad. Sci. U.S.A. 58, 1112-1119 (1967); FIG. 3A).
# [7] = test system: Drosophila; test: Resistance to paraquat induced stress (survival); format: in vivo, Drosophila melanogaster; conditions: sucrose solution containing 20 mM paraquat, FIG. 3C
# Experimental: (§3) Stress to an animal can be achieved by starvation or an increase production of free radicals. The effective removal of free radicals or the increase of antioxidant levels reduce stress to the animal and are important in slowing down the ageing process. The failure to repair oxidative damages and the elevation of free radial is known to shorten the life span of animal. Therefore, resistance to stress was measured in PBA fed flies by measuring if they have an increase resistance to the free radical generator, paraquat, and to dry starvation. PBA treated and control flies drank sucrose solution containing 20 mM paraquat were tested for duration of life span (e.g. survival) (FIG. 3C). […] PBA treated and control flies were also put into empty vials to measure their survival on dry starvation (FIG. 3B).
# [8] = test system: Drosophila; test: Survival on dry starvation; format: in vivo, Drosophila melanogaster; conditions: empty vials, FIG. 3B
# Experimental: as §3
# [9] = test system: histones H3 and H4; test: Histone acetylation level by western blot in flies fed PBA; format: in vivo, Drosophila melanogaster; conditions: flies fed PBA versus untreated, FIG. 4A and 4B
# Excerpt: PBA, an inhibitor of histone deacetylase, is known to enhance acetylation in the tails of histones H3 and H4, which causes the tails to be released from the DNA (Lea et al. Induction of Histone Acetylation and Growth Regulation in Erythroleukemia Cells by 4-phenylbutyrate and Structural Analogs Anticancer Research 19:1971-1976 (1999)). The acetylation of histones changes the binding affinity between histones and DNA, and leads genes to recruit transcription factors and undergo transcription. Using western blots stained with specific antibodies, the level of histone acetylation was measured in Drosophila, with and without PBA treatment. Batches of 100 flies (males+females) were used to prepare histones (Alfageme, C. R., Zweidler, A., Mahowald, A. & Cohen, L. H. Histones of Drosophila embryos J. Biol. Chem. 12, 3729-3736 (1974)). The homogenates of whole flies were centrifuged at 2,500×g for 10 min in a medium containing 0.05 M glycine, 10 mM Tris potassium maleate, 5 mM MgCl2, 10 mM mercaptoethanol, pH 7.3. Isolated nuclei were used to extract histones by HCl treatment. 10 μg samples of histone protein were loaded on a 16.5% polyacrylamide gel for electrophoresis, then transferred to a PVDF membrane (Immobilin-P transfer membrane, Millipore, Bedford, Mass.), followed by hybridization with antibodies to acetylated and nonacetylated H3 and H4 (Upstate Biotechnology, Lake Placid, N.Y.).
# [10] = test system: Drosophila EST clones; test: Differential gene expression on high density membrane arrays; format: in vivo, Drosophila melanogaster; conditions: 10 mM PBA, 10 days, 29° C.
# Experimental: To investigate the differential pattern of gene activity resulting from PBA treatment, high density membrane arrays containing about 27,000 Drosophila EST clones (Research Genetics, Huntsville, Tenn.) were used. Messenger RNA was prepared from either 10 day old flies that had been treated with 10 mM PBA at 29° C. from emergence onward. A similar preparation was made from untreated flies. These RNA preparations were used as probes on the membrane arrays.
# The Smart PCR cDNA synthesis kit (Clontech, Palo Alto, Calif.) was used to synthesize probes for hybridization. Total RNA was prepared from flies (males+females) fed for 10 days at 29° C. with medium containing 10 mM PBA or plain medium. After first strand synthesis of cDNAs by MMLV reverse transcriptase (M-MLV reverse transcriptase, Boehringer Mannheim, Indianapolis, Ind.), the cDNA was amplified by polymerase chain reaction (PCR). The reaction consisted of 95° C. for 1 minute, then 24 cycles of 95° C. for 15 seconds, 65° C. for 30 seconds, and 68° C. for 6 minutes. Probes were prepared by a random primed DNA labeling method with p^32. Filters containing 27,000 Drosophila EST clones (Research Genetics, Huntsville, Tenn.) were prehybridized for 4 hours, then probes were added to hybridize for 16 hours at 58° C. in a buffer containing 1 M NaCl, 0.05M Tris (pH 8.0), 5 mM EDTA, 1% SDS, and 10% Dextran Sulfate. […]
# [11] = test system: transcription levels; test: Verification of changes in transcription levels (RT-PCR / Northern); conditions: 10 mM PBA, 10 days, 29° C.
# Experimental: In another embodiment of the invention RT-PCR was be used to verify the changes in transcription levels seen by the difference in hybridization on the membrane arrays. Newly emerged adult flies (males+females) were fed food containing 10 mM PBA, or plain food for 10 days at 29° C., then total RNA was extracted and used to synthesize cDNA. For each PCR reaction, 50 ng of cDNA was used. Primers were designed from the sequence of each gene to detect fragments of between 300 and 600 base pairs (Table 4). PCR reactions were performed with 30 cycles of 94° C. for 1 minute, 55° C. for 1 minute, and 72° C. for 1 minute.
# Biochem. Biophys. 301, 34-40 (1993)). Elongation factor1-alpha plays a critical role in maintaining the level of protein synthesis, which normally declines with age (Webster, G. C. & Webster, S. L. Specific disappearance of translatable messenger RNA for elongation factor one in aging Drosophila melanogaster. Mech. Ageing Devel. 24, 335-342). […] Heat shock proteins enhance resistance to stress and extend life span (Tatar, M., Khazaeli, A. A. & Curtsinger, J. W. Chaperoning extended life. Nature 390, 30 (1997); Lithgow, G. J. Temperature, stress response and aging. Rev. Clin. Gerontol. 6, 119-127 (1996)).
# [12] = test system: histone deacetylase; conditions: Lea & Randolph 1998; cited from earlier work
# [13] = w^118 flies, medium containing 10 mM PBA, 29° C. (FIG. 1A)
# [14] = 10 mM PBA, 10 days, 25° C., n = 10
# [15] = 10 mM PBA, 10 days, 25° C., n = 40
# [16] = progeny of flies raised on 10 mM PBA, n = 10
# [17] = progeny of flies raised on 10 mM PBA, n = 40
compound,measurement,setting,value
"O=C([O-])CCCc1ccccc1.[Na+] [PBA, 4-phenylbutyric acid, sodium salt]",life span compared to same strain fed on fly medium,"[1]; Canton-S strain, 10 mM PBA (FIG. 1C)",extended life span
same,effect on longevity,"[1]; w^118 flies, lower concentrations of PBA (0.1, 1, 2.5, 5 mM)",no effect on longevity
same,extension in maximum life span,[1]; [13],60%
same,extension in median life span,[1]; [13],about 35%
same,life span compared with untreated flies,"[2]; PBA from emergence to 12 days, then plain medium",increased life span compared with untreated flies
same,life span compared with untreated flies,"[2]; plain medium for first 12 days, then PBA for remainder of life",increased life span compared with untreated flies
same,treatment initiated at later age versus young age,"[2]; virgin female flies (not in males), FIG. 2A",even more effective than the same duration of treatment at young age
same,intake of food (colour of alimentary tract),[3],No difference
same,"weight of 5 flies, parent females",[4]; [14],5.1 ± 0.2 mg
same,"weight of 5 flies, parent males",[4]; [14],3.3 ± 0.4 mg
same,"size of fly, parent female",[4]; [15],5.5 ± 0.1 mm
same,"size of fly, parent male",[4]; [15],4.6 ± 0.1 mm
same,weight and size of the flies versus control,[4]; after ten days of feeding with or without PBA,no differences were observed
same,egg laying,"[5]; 3 males + 3 females a vial for 16 hrs, n = 20 vials, 10 mM PBA, 10 days, 25° C.",70 ± 16
same,effect on reproductive activity of female flies,[5]; all measurements of Table 1,no detrimental effect
same,% of eggs yielding adults,"[5]; n = 20 vials, 10 mM PBA, 10 days, 25° C.",70 ± 16%
same,"weight of 5 flies, progeny females",[5]; [16],5.2 ± 0.2 mg
same,"weight of 5 flies, progeny males",[5]; [16],3.5 ± 0.3 mg
same,"size of fly, progeny female",[5]; [17],5.5 ± 0.1 mm
same,"size of fly, progeny male",[5]; [17],4.6 ± 0.2 mm
same,climbing ability (locomotor activity),[6],enhanced the climbing ability of old flies significantly
same,survival under paraquat induced stress,[7],survived much longer
same,resistance to dry starvation,[8],enhanced the resistance to starvation
same,acetylation of histones H3 and H4,[9],increase of acetylated H3 and H4
same,number of genes strongly induced,[10],One hundred
same,number of genes suppressed,[10]; disappearance of a visible spot,48
same,"Fold-change, cytochrome P450-4d1 (CG3656)",[11]; induced,7.2 fold
same,"Fold-change, daughterless (CG5102)",[11]; induced,8.0 fold
same,"Fold-change, dnaJ like2 (CG3061)",[11]; induced,2.9 fold
same,"Fold-change, epididymal secretory protein (CG7291)",[11]; induced,7.5 fold
same,"Fold-change, glutathione S transferase (CG10045)",[11]; induced,4.6 fold
same,"Fold-change, hsc70 (CG4264)",[11]; induced,4.5 fold
same,"Fold-change, hsp60 (CG12101)",[11]; induced,6.7 fold
same,"Fold-change, imaginal disc growth factor1 (CG4472)",[11]; induced,5.3 fold
same,"Fold-change, inebriated (CG15444)",[11]; induced,26.8 fold
same,"Fold-change, mitochondrial phosphate carrier protein (CG4994)",[11]; induced,5.1 fold
same,"Fold-change, superoxide dismutase (CG8905)",[11]; induced,51.9 fold
same,"Fold-change, translational elongation factor1 α (CG8280)",[11]; induced,4.1 fold
same,"Fold-change, transportin (CG7398)",[11]; induced,8.0 fold
same,"Fold-Change, NADH:ubiquinone reductase 75kD subunit precursor (CG2286)",[11]; repressed,25.3 fold
same,"Fold-Change, calreticulin (GH25160)",[11]; repressed,26.5 fold
same,"Fold-Change, cyclin-dependent kinase9 (GH21935)",[11]; repressed,2.7 fold
same,"Fold-Change, cytochrome c oxidase (FBgn0013674)",[11]; repressed,6.6 fold
same,"Fold-Change, cytochrome c oxidase subunit Vlb (CG14235)",[11]; repressed,2.2 fold
same,"Fold-Change, dnaJ like1 (CG10578)",[11]; repressed,13.2 fold
same,"Fold-Change, fatty acid synthetase (CG3523)",[11]; repressed,2.4 fold
same,"Fold-Change, glyceraldehyde 3 phosphate dehydrogenase1 (CG12055)",[11]; repressed,3.7 fold
same,"Fold-Change, hexokinase (CG3001)",[11]; repressed,5.0 fold
same,"Fold-Change, osa (GH03026)",[11]; repressed,5.0 fold
same,"Fold-Change, peptidyl glycine α hydroxylating monooxygenase (CG3832)",[11]; repressed,1.4 fold
same,"Fold-Change, peroxisomal farnesylated protein (GH03076)",[11]; repressed,1.8 fold
same,"Fold-Change, porin (GH08586)",[11]; repressed,1.4 fold
same,activity on histone deacetylase,[12],inhibits the activity of histone deacetylase

# — patent US20020120008A1, “Life extension of drosophila by a drug treatment” (priority 2000, published 2002)
